Measured values as given in patent US20180221306A1, “PHARMACEUTICAL COMPOSITIONS OF 5-HYDROXY-2-METHYLNAPHTHALENE-1,4-DIONE” (PellFiCure Pharmaceuticals, Inc., priority 2016, published 2018).
Marks after values point to notes of the source that are not given here.

Key:
rat = conditions: suspension in 0.5% of gum acacia in water or in propylene glycol, oral; cited from earlier work
[1] = Forced degradation: stability of Compound I formulations in selected solvents and Carrier A (HPLC)
[2] = 10% HPβCD, 25° C./60% RH, t = 2 week

In the case of `CC1=CC(=O)c2c(O)cccc2C1=O` [Compound I, 5-hydroxy-2-methylnaphthalene-1,4-dione], the LD50 (rat) is listed as 65 mg/kg, the “Solution Stability in Selected Solvents, Purity” value ([1]; 1% TW20, 25° C./60% RH, t = 0) is listed as 97.00 % Area and the “Solution Stability in Selected Solvents, Purity” value ([1]; 1% TW20, 25° C./60% RH, t = 1 week, precipitation observed) is listed as 64.23^‡ % Area. The “Solution Stability in Selected Solvents, Purity” value ([1]; 1% TW20, 25° C./60% RH, t = 2 week, precipitation observed) was 50.47^‡ % Area, the “Solution Stability in Selected Solvents, Purity” value ([1]; 1% TW20, 40° C./75% RH, t = 1 week, precipitation observed) was 47.19^‡ % Area and the “Solution Stability in Selected Solvents, Purity” value ([1]; 1% TW20, 40° C./75% RH, t = 2 week, precipitation observed) was 41.25^‡ % Area. The “Solution Stability in Selected Solvents, Purity” value ([1]; 1% TW80, 25° C./60% RH, t = 0) was 95.11 % Area, the “Solution Stability in Selected Solvents, Purity” value ([1]; 1% TW80, 25° C./60% RH, t = 1 week, precipitation observed) was 57.32^‡ % Area and the “Solution Stability in Selected Solvents, Purity” value ([1]; 1% TW80, 25° C./60% RH, t = 2 week, precipitation observed) was 47.62^‡ % Area. The “Solution Stability in Selected Solvents, Purity” value ([1]; 1% TW80, 40° C./75% RH, t = 1 week, precipitation observed) was 42.07^‡ % Area, the “Solution Stability in Selected Solvents, Purity” value ([1]; 1% TW80, 40° C./75% RH, t = 2 week, precipitation observed) was 40.53^‡ % Area and the “Solution Stability in Selected Solvents, Purity” value ([1]; 10% HPβCD, 25° C./60% RH, t = 0) was 99.49 % Area. For the same compound, the “Solution Stability in Selected Solvents, Purity” value ([1]; 10% HPβCD, 25° C./60% RH, t = 1 week) was 97.41 % Area, the “Solution Stability in Selected Solvents, % Potency” value [1, 2] was 91.09% and the “Solution Stability in Selected Solvents, Purity” value [1, 2] was 94.73 % Area. For the same compound, the “Solution Stability in Selected Solvents, Purity” value ([1]; 10% HPβCD, 40° C./75% RH, t = 1 week) was 91.22 % Area, the “Solution Stability in Selected Solvents, Purity” value ([1]; 10% HPβCD, 40° C./75% RH, t = 2 week) was 87.69 % Area and the “Solution Stability in Selected Solvents, Purity” value ([1]; ACN, 25° C./60% RH, t = 0) was 95.56 % Area. The “Solution Stability in Selected Solvents, Purity” value ([1]; ACN, 25° C./60% RH, t = 1 week) was 93.35 % Area, the “Solution Stability in Selected Solvents, Purity” value ([1]; ACN, 25° C./60% RH, t = 2 week) was 91.03 % Area and the “Solution Stability in Selected Solvents, Purity” value ([1]; ACN, 40° C./75% RH, t = 1 week) was 93.33 % Area. For the same compound, the “Solution Stability in Selected Solvents, Purity” value ([1]; ACN, 40° C./75% RH, t = 2 week) was 93.59 % Area, the “Solution Stability in Selected Solvents, Purity” value ([1]; Acetone, 25° C./60% RH, t = 0) was 94.35 % Area and the “Solution Stability in Selected Solvents, Purity” value ([1]; Acetone, 25° C./60% RH, t = 1 week) was 93.49 % Area. For the same compound, the “Solution Stability in Selected Solvents, Purity” value ([1]; Acetone, 25° C./60% RH, t = 2 week) was 92.27 % Area, the “Solution Stability in Selected Solvents, Purity” value ([1]; Acetone, 40° C./75% RH, t = 1 week) was 91.94 % Area and the “Solution Stability in Selected Solvents, Purity” value ([1]; Acetone, 40° C./75% RH, t = 2 week) was 91.52 % Area. The “Stability of the formulation in Carrier A (sesame oil), Purity” value (shortened to “Stability of the formulation”) ([1]; Carrier A (NF), 25° C./60% RH, t = 3 day) was 99.2 Area - %, the “Stability of the formulation” value ([1]; Carrier A (NF), 25° C./60% RH, t = 10 day) was 99.4 Area - % and the “Stability of the formulation” value ([1]; Carrier A (NF), 40° C./75% RH, t = 3 day) was 98.9 Area - %. The “Stability of the formulation” value ([1]; Carrier A (NF), 40° C./75% RH, t = 10 day) was 99.2 Area - %, the “Stability of the formulation” value ([1]; Carrier A (NF: laboratory grade), t = 0, reported from a representative standard) was 99.7 Area - % and the “Stability of the formulation” value ([1]; Carrier A (SR), 25° C./60% RH, t = 3 day) was 99.5 Area - %. The “Stability of the formulation” value ([1]; Carrier A (SR), 25° C./60% RH, t = 10 day) was 99.5 Area - %, the “Stability of the formulation” value ([1]; Carrier A (SR), 40° C./75% RH, t = 3 day) was 99.3 Area - % and the “Stability of the formulation” value ([1]; Carrier A (SR), 40° C./75% RH, t = 10 day) was 99.3 Area - %. For the same compound, the “Stability of the formulation” value ([1]; Carrier A (SR: super refined grade), t = 0, reported from a representative standard) was 99.7 Area - %, the “Solution Stability in Selected Solvents, Purity” value ([1]; DCM, 25° C./60% RH, t = 0) was 92.84 % Area and the “Solution Stability in Selected Solvents, Purity” value ([1]; DCM, 25° C./60% RH, t = 1 week) was 93.85 % Area. The “Solution Stability in Selected Solvents, Purity” value ([1]; DCM, 25° C./60% RH, t = 2 week) was 92.99 % Area, the “Solution Stability in Selected Solvents, Purity” value ([1]; DCM, 40° C./75% RH, t = 1 week) was 91.88 % Area and the “Solution Stability in Selected Solvents, Purity” value ([1]; DCM, 40° C./75% RH, t = 2 week) was 81.23 % Area. For the same compound, the “Solution Stability in Selected Solvents, Purity” value ([1]; DMSO, 25° C./60% RH, t = 0) was 94.08 % Area, the “Solution Stability in Selected Solvents, Purity” value ([1]; DMSO, 25° C./60% RH, t = 1 week) was 93.47 % Area and the “Solution Stability in Selected Solvents, Purity” value ([1]; DMSO, 25° C./60% RH, t = 2 week) was 92.47 % Area. The “Solution Stability in Selected Solvents, Purity” value ([1]; DMSO, 40° C./75% RH, t = 1 week) was 89.28 % Area, the “Solution Stability in Selected Solvents, Purity” value ([1]; DMSO, 40° C./75% RH, t = 2 week) was 89.26 % Area and the “Solution Stability in Selected Solvents, Purity” value ([1]; Diluent, 25° C./60% RH, t = 0) was 99.77 % Area. For the same compound, the “Solution Stability in Selected Solvents, Purity” value ([1]; Diluent, 25° C./60% RH, t = 1 week) was 99.76 % Area, the “Solution Stability in Selected Solvents, Purity” value ([1]; Diluent, 25° C./60% RH, t = 2 week) was 99.79 % Area and the “Solution Stability in Selected Solvents, Purity” value ([1]; Diluent, 40° C./75% RH, t = 1 week) was 99.81 % Area. The “Solution Stability in Selected Solvents, Purity” value ([1]; Diluent, 40° C./75% RH, t = 2 week) was 99.82 % Area, the “Solution Stability in Selected Solvents, Purity” value ([1]; EA (poor chromatography observed with ethyl acetate), 25° C./60% RH, t = 0) was 80.16 % Area and the “Solution Stability in Selected Solvents, Purity” value ([1]; EA (poor chromatography), 25° C./60% RH, t = 1 week) was 77.38 % Area. The “Solution Stability in Selected Solvents, Purity” value ([1]; EA (poor chromatography), 25° C./60% RH, t = 2 week) was 76.03 % Area and the “Solution Stability in Selected Solvents, Purity” value ([1]; EA (poor chromatography), 40° C./75% RH, t = 1 week) was 77.28 % Area.
